Source: patent publication US20060148858A1, “1, 2-Azole derivatives with hypoglycemic and hypolipidemic activity” (priority 2002, published 2006)

Columns and labels:
PPARδ-RXRα heterodimer = target: T1, PPARδ-RXRα heterodimer (Homo sapiens, UniProt Q03181); test: PPARδ-RXRα heterodimer ligand activity, luciferase reporter in COS-1 transformant (Test Example 4); type: cell-based; details: COS-1 transformant (hPPARδ, hRXRα, reporter), 36-48 hours, concentration for 50% of the maximum fold induction
T1 construct: expressed in transfected cells; host or cells: COS-1
T1 sequence (Q03181 1-441): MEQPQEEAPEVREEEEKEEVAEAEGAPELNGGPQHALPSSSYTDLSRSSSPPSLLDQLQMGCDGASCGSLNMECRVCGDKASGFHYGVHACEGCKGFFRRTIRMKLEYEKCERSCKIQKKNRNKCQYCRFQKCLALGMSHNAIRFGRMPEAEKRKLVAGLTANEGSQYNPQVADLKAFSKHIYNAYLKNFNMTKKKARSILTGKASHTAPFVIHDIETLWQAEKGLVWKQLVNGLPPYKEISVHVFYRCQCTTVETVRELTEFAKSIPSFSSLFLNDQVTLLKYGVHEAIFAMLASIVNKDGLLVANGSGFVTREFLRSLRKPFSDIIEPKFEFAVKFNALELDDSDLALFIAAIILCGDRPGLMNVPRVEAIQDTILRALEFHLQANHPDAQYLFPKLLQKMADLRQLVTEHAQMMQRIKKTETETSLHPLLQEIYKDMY
T1 sequence (P19793 1-462 partner): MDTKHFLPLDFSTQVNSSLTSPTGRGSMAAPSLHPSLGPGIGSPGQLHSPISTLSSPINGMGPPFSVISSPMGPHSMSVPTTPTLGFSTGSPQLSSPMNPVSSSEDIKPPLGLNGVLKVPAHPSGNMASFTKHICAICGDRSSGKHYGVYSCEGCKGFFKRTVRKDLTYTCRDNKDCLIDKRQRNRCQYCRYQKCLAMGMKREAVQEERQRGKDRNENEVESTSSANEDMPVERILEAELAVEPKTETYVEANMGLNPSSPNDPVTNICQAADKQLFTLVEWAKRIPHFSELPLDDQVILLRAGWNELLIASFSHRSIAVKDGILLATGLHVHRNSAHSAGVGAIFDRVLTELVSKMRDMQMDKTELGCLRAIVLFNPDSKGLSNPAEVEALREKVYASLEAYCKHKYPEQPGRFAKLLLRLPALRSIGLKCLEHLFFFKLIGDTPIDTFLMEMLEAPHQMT
Procedure: The transformant obtained in Reference Example 9a was suspended in DMEM medium (produced by Life Technologies, Inc., USA) containing 0.1% fatty acid-free bovine serum albumin (BSA) (produced by Wako Pure Chemical Industries, Ltd.), and inoculate to each well of a 96-well white plate (produced by Corning Costar Corporation, USA) by 80 μl at 1×10^4 cells/well. Then the test compound (20 μl) was added and cultured at 37° C. under 5% CO2 for 36-48 hours. After removing the medium from the 96-well white plate, 40 μl of PIKKAGENE LT 7.5 (produced by Wako Pure Chemical Industries, Ltd.) diluted twice with HBSS (HANKS' BALANCED SALT SOLUTION)(produced by BIO WHITTAKER Inc., USA), was added. After stirring, the luciferase activity was determined using 1420 ARVO Multilabel Counter (produced by PerkinElmer Inc., USA).
A fold induction was calculated based on the luciferase activity of each test compound by taking the luciferase activity in the non-treatment group as 1. The values of the test compound concentration and the fold induction were analyzed using PRISM (produced by GraphPad Software Inc. USA) to calculate the EC50 values, the effective concentration of a test compound for 50% of the maximum fold induction.
COS-1 cells were inoculated to a 150 cm^2 cell culture flask (produced by Corning Costar Corporation, USA) at the density of 5×10^6 cells/50 ml, and cultured at 37° C. under 5% CO2 conditions for 24 hours. Subsequently, a DNA was introduced into the cell under the condition shown below using Lipofectamine (produced by Invitrogen, USA).
First, Lipofectamine (125 μl), PLUS Reagent (100 μl, produced by Invitrogen, USA), plasmid pMCMVneo-hPPARδ (2.5 μg) obtained in Reference Example 3a, plasmid pMCMVneo-hRXRα (2.5 μg) obtained in Reference Example 4a and reporter plasmid pGL3-4ERPP-TK neo (5 μg) obtained in Reference Example 5a, and pRL-tk (5 μg, produced by Promega, USA) were mixed with opti-MEM (5 ml, produced by Invitrogen, USA) to give a transfection mixture.
Then, the above-mentioned transfection mixture and opti-MEM (20 ml) were added to COS-1 cells washed with opti-MEM, and the cells were cultured at 37° C. under 5% CO2 conditions for 3 hours. DMEM medium (25 ml, produced by Life Technologies, Inc., USA) containing 0.1% fatty acid-free bovine serum albumin (BSA) (produced by Wako Pure Chemical Industries, Ltd.) was added to the obtained COS-1 cells, and the cells were cultured at 37° C. under 5% CO2 conditions for 18-24 hours to give a transformant.

Compound | EC50 (PPARδ-RXRα heterodimer) [nM] | melting point [°C]
CCOc1cc(OCCCc2cn(-c3ccc(C(F)(F)F)cn3)nc2-c2ccccc2)ccc1CCC(=O)O [Example 99, 3-[2-ethoxy-4-(3-{3-phenyl-1-[5-(trifluoromethyl)-2-pyridinyl]-1H-pyrazol-4-yl}propoxy)phenyl]propanoic acid] | 0.55 | 135 to 136
calcium 2-[3-(4-{3-ethoxy-1-[5-(trifluoromethyl)-2-pyridinyl]-1H-pyrazol-4-yl}butoxy)phenoxy]-2-methylpropanoate [Example 102] | 9.1 | 
CCOc1cc(OCCCc2cn(-c3ccc(C(F)(F)F)cn3)nc2C)ccc1CCC(=O)O [Example 126, 3-[2-ethoxy-4-(3-{3-methyl-1-[5-(trifluoromethyl)-2-pyridyl]-1H-pyrazol-4-yl}propoxy)phenyl]propionic acid] | 2.2 | 129 to 130
CC(C)c1nn(-c2ccc(C(F)(F)F)cn2)cc1CCCCOc1cccc(CC(=O)O)c1 [Example 51, [3-(4-{3-isopropyl-1-[5-(trifluoromethyl)-2-pyridinyl]-1H-pyrazol-4-yl}butoxy)phenyl]acetic acid] | 3.9 | 
CCCc1nn(-c2ccc(C(F)(F)F)cn2)cc1CCCOc1ccc(CCC(=O)O)c(C)c1 [Example 65, 3-[2-methyl-4-(3-{3-propyl-1-[5-(trifluoromethyl)-2-pyridinyl]-1H-pyrazol-4-yl}propoxy)phenyl]propanoic acid] | 1.8 | 124 to 126
Cc1nn(-c2ccc(C(F)(F)F)cn2)cc1CCCOc1cccc(CC(=O)O)c1 [Example 127, [3-(3-{3-methyl-1-[5-(trifluoromethyl)-2-pyridyl]-1H-pyrazol-4-yl}propoxy)phenyl]acetic acid] | 3.9 | 96 to 97
COc1cc(OCc2cn(-c3ccc(C(F)(F)F)cn3)nc2C)ccc1CCC(=O)O [Example 122, 3-[2-methoxy-4-({3-methyl-1-[5-(trifluoromethyl)-2-pyridyl]-1H-pyrazol-4-yl}methoxy)phenyl]propionic acid] | 4.9 | 158 to 159
CCCc1nn(-c2ccc(C(F)(F)F)cn2)cc1CCCOc1cc(CCC(=O)O)cc(OC)c1 [Example 92, 3-[3-methoxy-5-(3-{3-propyl-1-[5-(trifluoromethyl)-2-pyridyl]-1H-pyrazol-4-yl}propoxy)phenyl]propionic acid] | 1.9 | 98 to 99
CCOc1nn(-c2ccc(C(F)(F)F)cn2)cc1CCCOc1cc(CC(=O)O)cc(OC)c1 [Example 168, [5-(3-{3-ethoxy-1-[5-(trifluoromethyl)-2-pyridyl]-1H-pyrazol-4-yl}propoxy)-3-methoxyphenyl]acetic acid] | 1.6 | 125 to 126
CCOc1nn(-c2ccc(C(F)(F)F)cc2)cc1CCCOc1cccc(CC(=O)O)c1 [Example 113, [3-(3-{3-ethoxy-1-[4-(trifluoromethyl)phenyl]-1H-pyrazol-4-yl}propoxy)phenyl]acetic acid] | 4.8 | 108 to 109
CCCOc1cc(OCCCc2cn(-c3ccc(C(F)(F)F)cn3)nc2OCC)ccc1CCC(=O)O [Example 117, 3-[4-(3-{3-ethoxy-1-[5-(trifluoromethyl)-2-pyridinyl]-1H-pyrazol-4-yl}propoxy)-2-propoxyphenyl]propanoic acid] | 1.6 | 126 to 127
CCOc1nn(-c2ccc(C(F)(F)F)cn2)cc1CCCOc1cc(CC(=O)O)ccc1OC [Example 131, [3-(3-{3-ethoxy-1-[5-(trifluoromethyl)-2-pyridyl]-1H-pyrazol-4-yl}propoxy)-4-methoxyphenyl]acetic acid] | 2.7 | 142 to 143
CCOc1nn(-c2ccc(C(F)(F)F)cn2)cc1CCCOc1ccc(CCC(=O)O)c(OC)c1 [Example 85, 3-[4-(3-{3-ethoxy-1-[5-(trifluoromethyl)-2-pyridyl]-1H-pyrazol-4-yl}propoxy)-2-methoxyphenyl]propionic acid] | 6 | 120 to 121
CCCCOc1nn(-c2ccc(C(F)(F)F)cn2)cc1CCCOc1ccc(CCC(=O)O)c(OCC)c1 [Example 155, 3-[4-(3-{3-butoxy-1-[5-(trifluoromethyl)-2-pyridyl]-1H-pyrazol-4-yl}propoxy)-2-ethoxyphenyl]propanoic acid] | 3.8 | 102 to 103
CCOc1nn(-c2ccc(C(F)(F)F)cc2)cc1CCCOc1cc(CCC(=O)O)n(-c2ccccc2)n1 [Example 111, 3-[3-(3-{3-ethoxy-1-[4-(trifluoromethyl)phenyl]-1H-pyrazol-4-yl}propoxy)-1-phenyl-1H-pyrazol-5-yl]propanoic acid] | 6.1 | 126 to 127
CCCOc1nn(-c2ccc(C(F)(F)F)cn2)cc1CCCOc1ccc(CCC(=O)O)c(OCC)c1 [Example 153, 3-[2-ethoxy-4-(3-{3-propoxy-1-[5-(trifluoromethyl)-2-pyridyl]-1H-pyrazol-4-yl}propoxy)phenyl]propanoic acid] | 1.9 | 112 to 113
CCOc1nn(-c2ccc(C(F)(F)F)cn2)cc1CCCOc1ccc(CCC(=O)O)cc1OC [Example 150, 3-[4-(3-{3-ethoxy-1-[5-(trifluoromethyl)-2-pyridyl]-1H-pyrazol-4-yl}propoxy)-3-methoxyphenyl]propanoic acid] | 2.7 | 131 to 132
CCCc1cn(CC(=O)O)nc1OCCCc1cn(-c2ccc(C(F)(F)F)cn2)nc1OCC [Example 255, [3-(3-{3-ethoxy-1-[5-(trifluoromethyl)-2-pyridyl]-1H-pyrazol-4-yl}propoxy)-4-propyl-1H-pyrazol-1-yl]acetic acid] | 9.5 | 134 to 135
CCCc1nn(-c2ccc(C(F)(F)F)cn2)cc1CCCOc1ccc(CC(=O)O)cc1 [Example 46, [4-(3-{3-propyl-1-[5-(trifluoromethyl)-2-pyridyl]-1H-pyrazol-4-yl}propoxy)phenyl]acetic acid] | 6.4 | 101 to 102
CCCc1nn(-c2ccc(C(F)(F)F)cn2)cc1CCCOc1ccc(CCC(=O)O)c(OC)c1 [Example 86, 3-[2-methoxy-4-(3-{3-propyl-1-[5-(trifluoromethyl)-2-pyridyl]-1H-pyrazol-4-yl}propoxy)phenyl]propionic acid] | 1.5 | 114 to 115
calcium 2-[3-(3-{3-ethoxy-1-[4-(trifluoromethyl)phenyl]-1H-pyrazol-4-yl}propoxy)phenoxy]-2-methylpropanoate [Example 105] | 7.2 | 
calcium 3-[3-ethoxy-1-(4-{3-ethoxy-1-[5-(trifluoromethyl)-2-pyridinyl]-1H-pyrazol-4-yl}butyl)-1H-pyrazol-4-yl]propanoate [Example 110] | 4.6 | 
